Consider 25 molecules from ChEMBL document CHEMBL1201862, “PubChem BioAssay data set” (2004).

The target of data set [1] is Luciferin 4-monooxygenase (Photinus pyralis, UniProt P08659). Put plainly: inhibition of purified Photinus pyralis luciferase – biochemical, luminescence, dose response (AID 1891).
A short description of data set [2]: Luminescence Cell-Based Dose Confirmation HTS to Identify Inhibitors of Platelet Dense Granule Release. [Related pubchem assays: 1663 (Primary HTS), 1678 (Summary of Project)]. The format is functional.
Data set [3] addresses T1, DNA repair protein RAD52 homolog (Homo sapiens, UniProt P43351).
T1 sequence (P43351 whole entry): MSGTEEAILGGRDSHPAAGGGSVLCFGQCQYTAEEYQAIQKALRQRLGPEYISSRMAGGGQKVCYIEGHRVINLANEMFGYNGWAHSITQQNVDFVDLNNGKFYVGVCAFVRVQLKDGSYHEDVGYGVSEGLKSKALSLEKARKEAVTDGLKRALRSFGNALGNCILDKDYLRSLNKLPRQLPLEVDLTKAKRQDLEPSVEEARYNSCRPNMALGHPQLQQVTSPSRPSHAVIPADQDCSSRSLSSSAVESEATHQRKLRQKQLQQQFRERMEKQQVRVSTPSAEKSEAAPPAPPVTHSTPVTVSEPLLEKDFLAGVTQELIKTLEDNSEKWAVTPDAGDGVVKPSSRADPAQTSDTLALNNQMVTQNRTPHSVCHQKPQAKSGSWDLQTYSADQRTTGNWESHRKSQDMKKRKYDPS
Type of data set: functional, biochemical.

Data set [4] concerns the target T2, Calpain-2 catalytic subunit (Sus scrofa, UniProt P43367).
T2 sequence (P43367 whole entry): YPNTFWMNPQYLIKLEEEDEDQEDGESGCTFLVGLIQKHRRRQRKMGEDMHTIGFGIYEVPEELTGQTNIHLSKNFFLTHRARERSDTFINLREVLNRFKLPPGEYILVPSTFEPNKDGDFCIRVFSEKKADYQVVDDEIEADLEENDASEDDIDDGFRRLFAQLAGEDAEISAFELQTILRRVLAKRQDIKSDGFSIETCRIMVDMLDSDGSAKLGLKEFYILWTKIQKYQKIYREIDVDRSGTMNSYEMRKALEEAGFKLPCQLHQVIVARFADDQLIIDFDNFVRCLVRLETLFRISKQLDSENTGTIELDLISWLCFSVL
Briefly: m-calpain protease blockers, concentration series – biochemical, fluorogenic peptide substrate, dose response (AID 1420). The format is functional.

The target of a further data set is Cytochrome P450 2C19 (Homo sapiens, UniProt P33261). Briefly: Cytochrome panel assay with activity outcomes. Panel member name: p450-cyp2c19 Compounds with AC50 equal or less than 10 uM are considered active. The format is functional.
Chain of Cytochrome P450 2C19 (P33261 whole entry): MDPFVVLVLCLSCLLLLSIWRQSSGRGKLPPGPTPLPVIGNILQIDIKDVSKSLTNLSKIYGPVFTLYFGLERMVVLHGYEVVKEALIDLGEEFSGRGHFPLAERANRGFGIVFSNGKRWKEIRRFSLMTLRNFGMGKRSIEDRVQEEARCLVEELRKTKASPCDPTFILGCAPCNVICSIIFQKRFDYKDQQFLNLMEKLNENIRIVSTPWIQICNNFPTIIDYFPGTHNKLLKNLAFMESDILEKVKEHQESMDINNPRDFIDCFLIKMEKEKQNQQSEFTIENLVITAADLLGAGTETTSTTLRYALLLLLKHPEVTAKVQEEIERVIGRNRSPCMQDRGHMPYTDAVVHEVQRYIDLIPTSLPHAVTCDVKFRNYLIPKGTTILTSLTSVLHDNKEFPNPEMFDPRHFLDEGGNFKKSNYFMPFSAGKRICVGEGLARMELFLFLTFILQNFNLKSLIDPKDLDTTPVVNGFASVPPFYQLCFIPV
Another data set concerns the target Cytochrome P450 3A4 (Homo sapiens, UniProt P08684).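 Also: CYP3A4 tested as one member of a cytochrome P450 panel screen.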
For another data set, the target named is Paired box protein Pax-8 (Homo sapiens, UniProt Q06710). Put plainly: PAX8 transcriptional activity inhibition in RMG-I – RMG-I cells, luciferase, cherry-pick, dose response (AID 687027).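 Also: luciferase reporter driven by Pax8 target thyroperoxidase promoter measured by SteadyGlo luminescence.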 The format is functional, cell-based.
Chain of Paired box protein Pax-8 (Q06710 whole entry): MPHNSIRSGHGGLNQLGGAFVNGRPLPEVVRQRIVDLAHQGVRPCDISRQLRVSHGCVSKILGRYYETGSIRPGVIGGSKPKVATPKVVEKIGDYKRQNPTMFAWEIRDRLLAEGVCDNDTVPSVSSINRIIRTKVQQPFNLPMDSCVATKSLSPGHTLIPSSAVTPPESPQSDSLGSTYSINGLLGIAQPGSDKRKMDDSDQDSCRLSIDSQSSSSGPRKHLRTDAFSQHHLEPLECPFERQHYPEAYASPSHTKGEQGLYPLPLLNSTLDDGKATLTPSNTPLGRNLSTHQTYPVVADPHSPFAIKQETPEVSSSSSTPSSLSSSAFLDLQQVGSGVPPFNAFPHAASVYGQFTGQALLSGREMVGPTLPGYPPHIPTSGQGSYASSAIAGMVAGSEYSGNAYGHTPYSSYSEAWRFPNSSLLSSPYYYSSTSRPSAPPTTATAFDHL
Data set [5] is described as follows: OVCAR8 cell viability loss – plate reader, dry powder samples, PAX8 project, dose response (AID 743197). Type of data set: functional, cell-based. The following applies: OVCAR-8.
The nature of data set [6]: P. falciparum Dd2 growth inhibitors, dose response, SYBR Green, cherry-picked samples (AID 1159567). Type of data set: functional, cell-based.

Calls of active or inactive are those of the source.

Chain of Luciferin 4-monooxygenase (P08659 whole entry): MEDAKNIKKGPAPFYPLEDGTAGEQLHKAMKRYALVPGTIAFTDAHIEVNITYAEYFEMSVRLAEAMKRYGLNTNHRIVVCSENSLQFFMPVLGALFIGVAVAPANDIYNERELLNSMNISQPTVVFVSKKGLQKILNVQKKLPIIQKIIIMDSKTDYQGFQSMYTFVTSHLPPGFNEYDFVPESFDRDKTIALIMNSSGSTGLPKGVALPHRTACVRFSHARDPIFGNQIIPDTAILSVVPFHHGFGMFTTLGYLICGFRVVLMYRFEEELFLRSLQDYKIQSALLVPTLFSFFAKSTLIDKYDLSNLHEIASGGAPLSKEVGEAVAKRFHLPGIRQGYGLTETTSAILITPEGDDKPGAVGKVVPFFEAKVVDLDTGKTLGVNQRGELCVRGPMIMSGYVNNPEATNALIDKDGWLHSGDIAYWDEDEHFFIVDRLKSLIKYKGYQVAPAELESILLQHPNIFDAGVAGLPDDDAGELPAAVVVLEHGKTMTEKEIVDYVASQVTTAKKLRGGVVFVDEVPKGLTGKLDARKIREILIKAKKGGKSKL
Chain of Cytochrome P450 3A4 (P08684 whole entry): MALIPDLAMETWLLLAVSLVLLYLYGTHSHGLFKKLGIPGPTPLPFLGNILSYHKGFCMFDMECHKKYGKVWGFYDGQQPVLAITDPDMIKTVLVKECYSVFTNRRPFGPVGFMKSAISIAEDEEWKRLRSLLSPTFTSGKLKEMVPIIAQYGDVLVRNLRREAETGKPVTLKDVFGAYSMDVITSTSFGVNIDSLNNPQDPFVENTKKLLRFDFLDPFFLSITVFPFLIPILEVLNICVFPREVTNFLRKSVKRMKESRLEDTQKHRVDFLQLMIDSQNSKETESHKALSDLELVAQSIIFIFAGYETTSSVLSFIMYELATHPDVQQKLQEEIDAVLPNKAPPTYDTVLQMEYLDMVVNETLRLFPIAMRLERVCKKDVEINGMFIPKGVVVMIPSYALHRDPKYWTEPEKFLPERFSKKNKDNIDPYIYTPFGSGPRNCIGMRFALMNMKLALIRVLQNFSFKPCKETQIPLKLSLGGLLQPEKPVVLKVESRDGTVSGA

As to `CCn1ccc(C(=O)Nc2c(C)nn(Cc3c(F)c(F)c(F)c(F)c3F)c2C)n1`, the EC50 in data set [1] and in [2] was > 112 µM (not active) each time.

`Cc1ccc2c(c1)c1c3n2CCN(CC(O)CNC(C)C)C3CCC1` (stereo unspecified): the AC50 (in general, the midpoint of the concentration-response curve, whichever way the signal moves) in data set [3] was 15.8 µM (active).

Regarding `COc1ccc2nc(NCCN=C(S)NCCCN3CCOCC3)c(C#N)cc2c1`, the concentration at half-maximal activity (AC50) in data set [3] is 9.87 µM (active).

Regarding `CCC(=O)N1CCc2cc(S(=O)(=O)N3CCc4ccccc4C3)ccc21`, the IC50 – broadly, the concentration that inhibits the measured activity by half – in [4] is < 0.4 µM (not active).

Take `Cc1ccc(SCCN=C(S)Nc2cc(C)cc(C)c2)cc1`: in data set [4], the IC50 was 6.82 µM (not active).

`COc1ccc(N(C(=O)Cn2nnc(-c3ccccc3F)n2)C(C(=O)NCC2CCCO2)c2ccc(Cl)cc2)cc1` (stereo unspecified): the IC50 in data set [4] is recorded as > 50 µM (not active).

On to `CC(C)C[C@H](NC(=O)[C@@H]1O[C@H]1C(=O)O)C(=O)NCCCCN=C(N)N`, for which, in [4], the IC50 is given as > 50 µM (not active). The AC50 result at Cytochrome P450 2C19 was “inconclusive”; at Cytochrome P450 3A4, 0.158 µM (inconclusive).

For `O=C(Nc1cccc(-c2nnc(-c3ccco3)o2)c1)c1ccccc1`, in data set [4], the IC50 is on record as 2.37 µM (not active).

For the molecule `CCOc1cc2c(cc1C(C)(C)C)NC(=O)CS2`, the EC50 in data set [1] and in data set [2] was > 112 µM (not active) throughout.

Take `Cc1noc(C)c1CSc1nnc2scc(-c3ccc(Cl)cc3)n12`: the 50% effective concentration (EC50) in data set [1] and in data set [2] was > 112 µM (not active) throughout.

With `CCN(CC)CCN1CCn2c3c(c4cc(C)ccc42)CCCC31` (stereo unspecified), the AC50 in data set [3] is 17.6 µM (active).

As for `COc1cccc(S(=O)(=O)N(C)C[C@H]2OCc3ccccc3-c3c(n(C)c4ccccc34)C(=O)N([C@H](C)CO)C[C@H]2C)c1`, the AC50 is 9.53 µM (active) on Paired box protein Pax-8 and > 70 µM (inactive) in data set [5].

For the molecule `Cc1ccc(S(=O)(=O)N(C)C[C@@H]2OCCCC[C@H](C)Oc3ccc(NS(=O)(=O)c4cccs4)cc3C(=O)N([C@H](C)CO)C[C@H]2C)cc1`, the AC50 on Paired box protein Pax-8 was 6.6 µM (active); in [5], > 70 µM (inactive).

Regarding `CC(=O)Nc1cccc(-c2cc(N3CCN(CCO)CC3)n3nccc3n2)c1`, the AC50 in data set [3] was 27.6 µM (active).

Regarding `COc1ccc(S(=O)(=O)N(C)C[C@H]2OCCCC[C@@H](C)Oc3ccc(NS(=O)(=O)c4c(C)noc4C)cc3C(=O)N([C@H](C)CO)C[C@H]2C)cc1`, the figures for the AC50 (at Paired box protein Pax-8; in [5]) were 7.76 µM (active) and 66 µM (active), respectively.

On to `C[C@H](CO)N1C[C@H](C)[C@H](CN(C)Cc2ccc(C(F)(F)F)cc2)OCCCC[C@H](C)Oc2ccc(NC(=O)c3ccccc3)cc2C1=O`, for which the AC50 on Paired box protein Pax-8 was 9.33 µM (active); in data set [5], 43.7 µM (active).

`CN(C)CCCNc1nc2cc(-c3cnn(C)c3)sc2c(=O)n1C`: in [3], the AC50 was 10.2 µM (active).

On to `COc1cccc(/C=N/Nc2ccc(S(=O)(=O)O)cc2)c1O`, for which the EC50 (as a rule, the concentration needed to bring the measured effect to its halfway point) is 3.91 µM (active) in [1] and 3.13 µM (active) in data set [2].

Regarding `Cc1cc(C(=O)N/N=C/c2ccc(OCc3ccccc3)cc2)c(C)o1`, the half-maximal inhibitory concentration (IC50) in data set [4] is < 0.4 µM (not active).

For the molecule `COc1ccc(CO/N=C/c2c(C)nc(O)nc2O)cc1`, the EC50 was > 112 µM (not active) in data set [1] and 13.8 µM (active) in data set [2].

`Cc1ccccc1S(=O)(=O)N1[C@H](CO)[C@@H](c2ccc(C#CC3CC3)cc2)[C@@H]1C#N`: the AC50 in data set [6] is 4.33 µM (active).

Regarding `CC(C)(C)[S@+]([O-])N1Cc2cc(C(=O)NCCN3CCCCC3)nc(-c3cccc(-c4ccc(C#N)cc4)c3)c2[C@@H]1CCO`, the AC50 in data set [6] is 9.22 µM (active).

On to `COc1ccccc1CNC(=O)C[C@H]1C[C@H]2c3cc(NC(=O)Cc4ccncc4)ccc3O[C@H]2[C@@H](CO)O1`, for which the AC50 in [6] is 4.52 µM (active).

As to `C[C@@H]1CN([C@H](C)CO)C(=O)c2c(c3ccccc3n2C)-c2ccccc2CO[C@@H]1CN(C)Cc1cccc(F)c1`, in data set [6], the AC50 is 3.45 µM (active).

For `COc1cccc(CNC(=O)c2cc3c(c(-c4cccc(-c5ccncc5)c4)n2)[C@@H](CCO)N([S@+]([O-])C(C)(C)C)C3)c1`, the AC50 in [6] was 4.32 µM (active).
